Values after ≈ are worked out from the molar mass of the structure shown.
Key:
[1] = DPPH radical scavenging assay; conditions: DPPH 0.1 mM in methanol, 25°C, 30 min
Procedure: DPPH radical scavenging assay as described by Ha. The hydrogen atom donating ability of the plant extractives was determined by the decolorization of methanol solution of 2,2-diphenyl-1-picrylhydrazyl (DPPH). DPPH produces purple color in methanol solution and fades to shades of yellow color in the presence of antioxidants. […]
DPPH (0.1 mM) was diluted in methanol. 200 μL of this solution was added to 1.3 μL of various concentrations of compounds in DMSO (256.0, 64.0, 16.0, and 4.0 μg/mL). The mixture was performed by a 96-well plate at 25 °C in 30 min. Then, absorbance was determined by Epoch™ Microplate Spectrophotometer (at 517 nm). The percentage of DPPH quenching activity was computed by the following formula:
Inhibitory percentage SC (%) = [(Ao - A1)/Ao] × 100. where AO was defined as the absorbance of control reaction, and A1 represented for the absorbance in the presence of test or standard sample. Each experiment was repeated three times. Quercetin was used as a reference compound. […]

[2] = target: T1, α-glucosidase (Sigma G0660) (Saccharomyces cerevisiae, UniProt P53341); experiment: Kinetic study of α-glucosidase inhibition (Michaelis-Menten, pNPG); assay type: biochemical, yeast
T1 construct: purchased Sigma G0660
Procedure: The method’s principle based on the hydrolyzed reaction of 4-nitrophenyl-α-D-glucopiranoside with α-glucosidase enzyme into yellow 4- […]
The kinetic assay was performed according to the method using a series of […]
μL of 100 mM phosphate buffer (pH 6.8), 25 μL of α-glucosidase (0.4 U/mL, Sigma G0660) were pre-incubated for 10 min at 37 °C. DMSO was added to the respective control wells to a 0.64% final concentration. The reaction was initiated with the addition of 25 μL of p-nitrophenyl-[…] (pNPG, Sigma N1377) solution in a range of final concentrations. The amount of released p-nitrophenol from pNPG was immediately measured at 410 nm with Infinite M200 PRO (Tecan, Austria). Conversion of optical density to nM p-nitrophenol was performed with a standard curve. Reaction rates were determined from the linear parts of kinetic curves and fitted to the Michaelis-Menten equation. The assay was performed in triplicate wells and two independent […]
Ligands were prepared with MarvinSketch 18.8.0 (ChemAxon Ltd.). Ligands were hydrogenized and conformations with minimal potential energy were obtained using the MMFF94 force field. The homology model of S. cerevisiae α-glucosidase was obtained with SWISS-MODEL as described previously. Protein and ligand structures followed standard preparation procedure using AutoDocTools 1.5.6. We used AutoDock Vina 1.1.211 to perform all docking runs. The grid box with 70×80×80 Å dimensions was centered on the enzyme molecule to include the entire 3D space around the protein. The top-score binding poses were used in subsequent analysis. […]
(Dassault Systemes Biovia Corp.).
DPPH (0.1 mM) was diluted in methanol. 200 μL of this solution was added to 1.3 μL of various concentrations of compounds in DMSO (256.0, 64.0, 16.0, and 4.0 μg/mL). The mixture was performed by a 96-well plate at 25 °C in 30 min. […]

MTT cytotoxicity assay = conditions: human
Procedure: The cytotoxic activity of compounds was evaluated against four cancer cell lines KB, Hep-G2, Lu-1 and MCF-7, using colorimetric MTT assay. […]
MTT assay was used to determine the cytotoxic activity of compounds with human cancer cell lines acquired from the American Type Culture Collection (ATCC): epidermoid carcinoma (KB, ATCC number CCL-17), hepatocellular carcinoma (HepG2, ATCC number HB-8065), lung adenocarcinoma LU-1 (ATCC number HTB - 57TM), breast adenocarcinoma MCF-7 (ATCC number HTB - 22TM. Cells were cultured in medium DMEM supplemented with 10% Fetal bovine serum (FBS), 1% Penicillin and Streptomycin and 1% L-glutamine, under a humidified atmosphere of 5% CO2 at 37°C.
Compounds were dissolved in DMSO at 40 mg/mL and a series of dilutions for each compound was prepared to final concentrations of 256, 64, 16, 4 and 1 μg/mL. Cells were separated with trypsin and seeded in each well with 3 x10^4 cells per ml and were treated with sample different concentrations on 96-well plates. Untreated cells represented the controls. After 72h of treatment, an MTT solution (10 μl, 5 mg/mL) of phosphate buffer was added to each well for 4 h until intracellular purple formazan crystals are visible. Remove MTT and add DMSO solution (100 μL). The optical density of the solution was determined by Epoch™ Microplate Spectrophotometer at 540 nm. The inhibition ratio was calculated based on the optical densities from the three replicate […]
are evaluated to have cytotoxic activity.

[3] = target: T2, yeast α-GLy (α-glucosidase, Sigma G0660) (Saccharomyces cerevisiae, UniProt P53341); experiment: biochemical; assay type: biochemical; conditions: yeast α-glucosidase, 37°C, pH 6.8; read-out: IC50 ± SE, α-glucosidase inhibition
T2 construct: purchased Sigma G0660
Procedure: S1. Materials and Methods […]
glucosidase inhibition assay. α-Glucosidase enzyme inhibition assay was carried out in a 96-well microplate. The method’s principle based on the hydrolyzed reaction of 4-nitrophenyl-α-D-glucopiranoside with α-glucosidase enzyme into yellow 4- […]
p-Nitrophenyl α-D-Glucoside a- Gl ucosidas e α-D-Glucose + p- Nitrophenol α-Glucosidase inhibitory activity assay was performed following the modified method of Pistia Brueggeman and Hollingsworth with slight modification. Quinopimaric […]
concentrations of 256, 64, 16, 4 and 1 µg/mL. In a 96-well plate, a reaction mixture containing 20 μL of phosphate buffer (100 mM; pH 6.8), 20 μL of α-glucosidase (0.3 U/mL, Sigma G0660) (this concentration was determined by a series of α-glucosidase […]
linearity between the enzyme concentration and the absorbance of yellow color mixture after reaction which was approximately 5-fold higher than the back ground and at least […]
concentrations was pre-incubated for 10 min at 37°C. Then 20 μL of […] p-nitrophenyl α-D-glucopyranoside (Sigma N1377) was added to the mixture as a substrate. After further incubation at 37°C for 30 min, the reaction was stopped by adding 80 μL of 0.1 […]
solution were prepared using the phosphate buffer […]; pH 6.8. […]
as a positive control and water as negative control. The yellow color produced was quantitated by colorimetric analysis and reading the absorbance at 410 nm. Each experiment was performed in triplicates, along with appropriate blanks. The solvent DMSO was use as negative control to evaluate its effect on α-glucosidase activity. […]
or substrate in negative control. Back ground was determined by volume of buffer as […]
The % inhibition has been obtained using the formula:
% inhibition = {Absorbance (control) –Absorbance (sample)}/Absorbance (control) IC50 value is defined as the concentration of samples inhibiting 50% of α-glucosidase activity under the stated assay conditions. […]

T1 sequence (P53341 whole entry): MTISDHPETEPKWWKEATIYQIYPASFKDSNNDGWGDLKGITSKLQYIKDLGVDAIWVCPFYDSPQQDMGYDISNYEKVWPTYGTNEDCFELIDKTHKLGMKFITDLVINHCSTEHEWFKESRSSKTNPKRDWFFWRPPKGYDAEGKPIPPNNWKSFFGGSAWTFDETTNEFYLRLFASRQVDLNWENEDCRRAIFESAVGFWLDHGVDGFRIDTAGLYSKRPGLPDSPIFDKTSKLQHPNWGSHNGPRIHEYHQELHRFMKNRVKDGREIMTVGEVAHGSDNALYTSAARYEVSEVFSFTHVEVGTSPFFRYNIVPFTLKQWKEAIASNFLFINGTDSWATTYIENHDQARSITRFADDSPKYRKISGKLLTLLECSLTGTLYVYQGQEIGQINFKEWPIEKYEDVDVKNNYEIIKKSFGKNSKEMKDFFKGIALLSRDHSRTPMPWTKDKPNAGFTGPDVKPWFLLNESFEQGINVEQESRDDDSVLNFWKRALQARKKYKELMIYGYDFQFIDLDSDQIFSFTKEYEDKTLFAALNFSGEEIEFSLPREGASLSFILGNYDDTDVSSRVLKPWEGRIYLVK
T2 sequence (P53341 whole entry): as above

SMILES: C#CCOC(=O)C1(C)CCCC2(C)C1CCC13C=C(C(C)C)C(CC12)c1c(O)cc2c(C(=O)OC)c(C)[nH]c2c13 (stereo not shown) [Compound 45, Methyl 7-propynyl 1-hydroxy-13-isopropyl-7,10a,2′-trimethyl-5,6,6b,7,8,9,10,10a,10b,11,12,13-dodecahydro-12,4b-ethenophenanthro [2,1-g]indole-7,1′-dicarboxylate]
- IC50 values, antioxidant test (DPPH) [1]: > 256 µg/mL
- Vmax ([2]; Compound 45 at 25 μM): 2.277 nM/min
- Vmax ([2]; Compound 45 at 50 μM): 2.221 nM/min
- Vmax ([2]; Compound 45 at 100 μM): 2.249 nM/min
- mechanism of α-glucosidase inhibition ([2]; Michaelis-Menten nonlinear regression): competitive inhibitor
- IC50 at 72 h (MTT cytotoxicity assay; Hep-G2 hepatocellular carcinoma cells (ATCC HB-8065)): 47.2 ± 1 µg/mL (≈ 86.8 µM)
- IC50 at 72 h (MTT cytotoxicity assay; KB epidermoid carcinoma cells (ATCC CCL-17)): 42.2 ± 0.84 µg/mL (≈ 77.6 µM)
- IC50 at 72 h (MTT cytotoxicity assay; Lu-1 lung adenocarcinoma cells (ATCC HTB-57)): 16 ± 0.36 µg/mL (≈ 29.4 µM)
- IC50 at 72 h (MTT cytotoxicity assay; MCF-7 breast adenocarcinoma cells (ATCC HTB-22)): 30.2 ± 0.8 µg/mL (≈ 55.6 µM)
- IC50 [3]: 150 ± 8 nM

From article PMC9655717, “New Molecules of Diterpene Origin with Inhibitory Properties toward α-Glucosidase” (International Journal of Molecular Sciences, 2022)
